Results as given in US20230322776A1, “NEW ARYL-PYRIDO-PYRIMIDIN-ONE DERIVATIVES” (Hoffmann-La Roche Inc., priority 2020, published 2023).

Columns and labels:
[1] = tested on: A375 cells (V600E mutated BRAF), ERK phospho-T202/Y204; experiment: HTRF assay for P-ERK determination in A375 cells (BRAF inhibition); format: cell-based; conditions: Homo sapiens, A-375, 1 hour drug incubation, DMSO = 100%, 10 μM Dabrafenib = 0%, top concentration 10 μM, read-out: P-ERK_A375: IC50
Text: (§1) A375 is a cellular cancer model expressing V600E mutated BRAF and HCT116 a cellular cancer model expressing WT BRAF. First generation BRAF inhibitors such as e.g. dabrafenib induce a paradox effect on tumour cells in that they inhibit the growth of V600E mutated BRAF cells (such as e.g. A375), while they activate growth in WT BRAF cells (such as e.g. HCT 116). ERK 1,2 phosphorylation (terminal member of the phosphorylation cascade of the MAPK pathway) is hereafter reported as main readout for the activation status of the MAPK pathway. DMEM no-phenol red medium supplemented with L-glutamine was purchased from (Thermo Fisher Scientific). Fetal bovine serum (FBS) was purchased from VWR. Advanced ERK phospho-T202/Y204 kit—10,000 tests was purchased from Cisbio cat #64AERPEH. A375 (catalog #CRL-1619) and HCT116 (catalog #CCL-247) cells were originally obtained from American type Culture Collection (ATCC) and banked by the Roche repository. 384-Well microplates ultized were purchased from Greiner Bio-One, 384-well, (With Lid, HiBase, Low volume cat 784-080).
(§2) HTRF Assay for P-ERK Determination in A375 or HCT116 Cells
(§3) Prior to the assay, A375 and HCT116 cell lines are maintained in DMEM no-phenol red medium supplemented with 10% fetal bovine serum (FBS). Following compound treatment, P-ERK levels are determined by measuring FRET fluorescence signal induced by selective binding of two antibodies provided in the mentioned kit (Cisbio cat #64AERPEH) on ERK protein when phosphorylated at Thr202/Tyr204. Briefly, 8000 cells/well in 12 μl media/well are plated in the 384-well plate and left overnight in the incubator (at 37° C. with 5% CO2-humidified atmosphere), the following day the plate is treated in duplicate with test compounds, dabrafenib and PLX8394 (the latter two as controls) at the following final drug concentrations: 10 μM, 3 μM, 1 μM, 0.3 μM, 0.1 μM, 0.03 μM, 0.01 μM, 0.003 μM and 0.001 μM. All wells are subjected to DMSO normalization and drug incubation occurs for 1 hour. Then, 4 μl of a 4× lysis buffer supplied with the kit are added to the wells, the plate is then centrifuged for 30 second (3000 rpm) and incubated on a plate shaker for 1 h at rt.
(§4) At the end of the incubation 4 μl/well of advanced P-ERK antibody solution (prepared according to manufacturer's instruction) followed by 4 μl/well of criptate P-ERK antibody solution (prepared according to manufacturer's instruction) (Cisbio cat #64AERPEH) are added to test wells.
(§5) In order to allow proper data normalization, control wells non drug treated reported in the following table are always included in each plate (according to manufacturer's instruction):
(§6) The plate is then centrifuged at 3000 rpm for 30 seconds, sealed to prevent evaporation and incubated overnight in the dark at room temperature. The plate is then analyzed and fluorescence emission value collected through a Pherastast FSX (BMG Labtech) apparatus at […]. The obtained fluorescence values are processed according to the formula Ratio=[…]*10000 then the average of the ratio on the blank is subtracted to all values.
Data are normalized in the case of A375 cells (BRAF inhibition) considering the average of the ratio (blank subtracted) derived by DMSO only treated cells as 100% and by considering the average of the ratio (blank subtracted) derived by 10 μM Dabrafenib treated cells as 0%. Mean of the normalized points are fitted with sigmoidal curve and IC50 values are determined.

[2] = tested on: HCT116 cells (WT BRAF), ERK phospho-T202/Y204; experiment: HTRF assay for P-ERK determination in HCT116 cells (BRAF activation, paradox); format: cell-based; conditions: for EC50: Homo sapiens, HCT-116, HCT116 cells, 1 hour drug incubation, activation relative to maximum Dabrafenib-mediated activation (100%), top concentration 10 μM, read-out: P-ERK_HCT-116: EC50—50PCT; for Fold Selectivity HCT-116 EC50-50/ A375: ratio of P-ERK HCT-116 EC50-50PCT to P-ERK A375 IC50
Text: as §1, §2, §3, §4, §5, §6
Data are normalized in the case of HCT116 cells (BRAF activation) considering the average of the ratio (blank subtracted) derived by DMSO only treated cells as 0% and by considering the average of the ratio (blank subtracted) derived by Dabrafenib treated cells at the concentration which provides the highest signal as 100%. Individual points are fitted with either sigmoidal or bell shape curves, the percentage of activation compared to maximum Dabrafenib-mediated activation is determined.

BRAF = BRAF (Homo sapiens, UniProt P15056); experiment: KD BRAF (Table 1; no method described); format: binding
Sequence of BRAF (P15056 whole entry): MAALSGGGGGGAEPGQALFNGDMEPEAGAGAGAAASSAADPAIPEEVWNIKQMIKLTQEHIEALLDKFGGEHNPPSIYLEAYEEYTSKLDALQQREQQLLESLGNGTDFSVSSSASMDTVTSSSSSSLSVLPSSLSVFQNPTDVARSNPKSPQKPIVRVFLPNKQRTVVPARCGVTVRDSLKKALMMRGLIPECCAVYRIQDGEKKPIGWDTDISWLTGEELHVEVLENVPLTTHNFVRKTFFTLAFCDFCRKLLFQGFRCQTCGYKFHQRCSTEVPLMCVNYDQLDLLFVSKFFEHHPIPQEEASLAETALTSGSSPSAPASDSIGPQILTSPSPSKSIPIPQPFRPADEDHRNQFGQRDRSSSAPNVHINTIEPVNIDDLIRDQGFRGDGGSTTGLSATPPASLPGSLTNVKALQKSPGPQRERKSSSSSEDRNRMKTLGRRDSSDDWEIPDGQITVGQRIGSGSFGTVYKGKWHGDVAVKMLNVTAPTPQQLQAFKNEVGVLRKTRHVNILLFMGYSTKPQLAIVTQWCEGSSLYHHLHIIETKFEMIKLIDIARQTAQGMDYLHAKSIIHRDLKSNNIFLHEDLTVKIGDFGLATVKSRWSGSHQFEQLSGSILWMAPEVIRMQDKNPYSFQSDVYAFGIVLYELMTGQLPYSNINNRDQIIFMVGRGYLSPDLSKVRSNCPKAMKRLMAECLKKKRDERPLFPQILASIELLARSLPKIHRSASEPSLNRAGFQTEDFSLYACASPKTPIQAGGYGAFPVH

BRAF V660E = BRAF V660E (Homo sapiens, UniProt P15056, V600E); experiment: KD BRAF V660E (Table 1; no method described); format: binding
Sequence of BRAF V660E (P15056 2-766 V600E): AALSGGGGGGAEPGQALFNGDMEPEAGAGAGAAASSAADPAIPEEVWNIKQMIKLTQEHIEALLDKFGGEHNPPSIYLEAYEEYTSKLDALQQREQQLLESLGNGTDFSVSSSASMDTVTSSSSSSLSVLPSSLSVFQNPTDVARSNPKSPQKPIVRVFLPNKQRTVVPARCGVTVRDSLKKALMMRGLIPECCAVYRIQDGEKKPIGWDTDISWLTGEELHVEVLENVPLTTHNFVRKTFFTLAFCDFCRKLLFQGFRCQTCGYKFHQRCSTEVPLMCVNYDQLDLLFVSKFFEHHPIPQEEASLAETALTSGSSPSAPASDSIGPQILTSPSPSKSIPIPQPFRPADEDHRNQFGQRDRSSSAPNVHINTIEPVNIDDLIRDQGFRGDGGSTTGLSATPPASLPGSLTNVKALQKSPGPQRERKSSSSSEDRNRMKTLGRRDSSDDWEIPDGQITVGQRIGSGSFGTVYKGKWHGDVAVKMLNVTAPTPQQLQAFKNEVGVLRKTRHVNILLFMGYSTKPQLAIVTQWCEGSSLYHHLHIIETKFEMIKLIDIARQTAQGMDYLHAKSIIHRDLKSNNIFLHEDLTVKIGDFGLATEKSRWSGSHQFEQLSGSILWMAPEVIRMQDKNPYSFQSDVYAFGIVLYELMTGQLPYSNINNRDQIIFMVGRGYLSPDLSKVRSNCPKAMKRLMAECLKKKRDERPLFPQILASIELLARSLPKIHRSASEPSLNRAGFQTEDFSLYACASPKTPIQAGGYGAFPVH

SMILES | IC50 [1] | EC50 [2] | Fold Selectivity HCT-116 EC50-50/ A375 [2] | Kd (BRAF) | Kd (BRAF V660E)
CCN(C)S(=O)(=O)Nc1ccc(F)c(-c2cc3cnc(NCCCNC)nc3n(C)c2=O)c1F.Cl [Example 17, 6-[3-[[ethyl(methyl)sulfamoyl]amino]-2,6-difluorophenyl]-8-methyl-2-[3-(methylamino)propylamino]-7-oxopyrido[2,3-d]pyrimidine hydrochloride] | 1260 nM | 7.53 µM | 6.0 | 168 nM | 385 nM
Cl.Cn1c(=O)c(-c2c(F)ccc(NS(=O)(=O)N3CC[C@@H](F)C3)c2F)cc2cnc(NCCCC3CCNCC3)nc21 [Example 18, (3R)-N-[2,4-difluoro-3-[8-methyl-7-oxo-2-(3-piperidin-4-ylpropylamino)pyrido[2,3-d]pyrimidin-6-yl]phenyl]-3-fluoropyrrolidine-1-sulfonamide hydrochloride] | 207 nM | 5.87 µM | 28.3 | 25.5 nM | 71.6 nM
Cl.Cn1c(=O)c(-c2c(F)ccc(NS(=O)(=O)N3CC[C@@H](F)C3)c2F)cc2cnc(NCCCC(=O)NC3CCNCC3)nc21 [Example 19, 4-[[6-[2,6-difluoro-3-[[(3R)-3-fluoropyrrolidin-1-yl]sulfonylamino]phenyl]-8-methyl-7-oxopyrido[2,3-d]pyrimidin-2-yl]amino]-N-piperidin-4-ylbutanamide hydrochloride] | 7210 nM | ≥ 10 µM | 1.4 | 38.3 nM | 59.6 nM
CC(=O)N1CCC(CCNc2ncc3cc(-c4c(F)ccc(NS(=O)(=O)N5CC[C@@H](F)C5)c4F)c(=O)n(C)c3n2)CC1 [Example 20, (3R)—N-[3-[2-[2-(1-acetylpiperidin-4-yl)ethylamino]-8-methyl-7-oxopyrido[2,3-d]pyrimidin-6-yl]-2,4-difluorophenyl]-3-fluoropyrrolidine-1-sulfonamide] | 36.7 nM | 1.65 µM | 44.9 | 10.2 nM | 27 nM
CC(=O)N1CCC(CNc2ncc3cc(-c4c(F)ccc(NS(=O)(=O)N5CC[C@@H](F)C5)c4F)c(=O)n(C)c3n2)CC1 [Example 21, (3R)-N-[3-[2-[(1-acetylpiperidin-4-yl)methylamino]-8-methyl-7-oxopyrido[2,3-d]pyrimidin-6-yl]-2,4-difluorophenyl]-3-fluoropyrrolidine-1-sulfonamide] | 86.7 nM | ≥ 10 µM | >115.3 | 62 nM | 109 nM
CC(=O)N1CC(Nc2ncc3cc(-c4c(F)ccc(NS(=O)(=O)N5CC[C@@H](F)C5)c4F)c(=O)n(C)c3n2)C1 [Example 22, (3R)-N-[3-[2-[(1-acetylazetidin-3-yl)amino]-8-methyl-7-oxopyrido[2,3-d]pyrimidin-6-yl]-2,4-difluorophenyl]-3-fluoropyrrolidine-1-sulfonamide] | 184 nM | ≥ 10 µM | >54.4 | 7.1 nM | 20.8 nM
CC(=O)N[C@H]1CC[C@H](Nc2ncc3cc(-c4c(F)ccc(NS(=O)(=O)N5CC[C@@H](F)C5)c4F)c(=O)n(C)c3n2)C1 [Example 24, N-[(1S,3S)-3-[[6-[2,6-difluoro-3-[[(3R)-3-fluoropyrrolidin-1-yl]sulfonylamino]phenyl]-8-methyl-7-oxopyrido[2,3-d]pyrimidin-2-yl]amino]cyclopentyl]acetamide] | 126 nM | 8.87 µM | 70.7 | 8.2 nM | 27.5 nM
CC(=O)NCCCCCNc1ncc2cc(-c3c(F)ccc(NS(=O)(=O)N4CC[C@@H](F)C4)c3F)c(=O)n(C)c2n1 [Example 25, N-[5-[[6-[2,6-difluoro-3-[[(3R)-3-fluoropyrrolidin-1-yl]sulfonylamino]phenyl]-8-methyl-7-oxopyrido[2,3-d]pyrimidin-2-yl]amino]pentyl]acetamide] | 44 nM | 3.18 µM | 72.3 | 12.2 nM | 26.8 nM
CC(=O)N1CCC(O)(CCNc2ncc3cc(-c4c(F)ccc(NS(=O)(=O)N5CC[C@@H](F)C5)c4F)c(=O)n(C)c3n2)CC1 [Example 26, (3R)-N-[3-[2-[2-(1-acetyl-4-hydroxypiperidin-4-yl)ethylamino]-8-methyl-7-oxopyrido[2,3-d]pyrimidin-6-yl]-2,4-difluorophenyl]-3-fluoropyrrolidine-1-sulfonamide] | 271 nM | ≥ 10 µM | >36.9 | 9.4 nM | 27.5 nM
CC(=O)N(C)CCCNc1ncc2cc(-c3c(F)ccc(NS(=O)(=O)N4CC[C@@H](F)C4)c3F)c(=O)n(C)c2n1 [Example 27, N-[3-[[6-[2,6-difluoro-3-[[(3R)-3-fluoropyrrolidin-1-yl]sulfonylamino]phenyl]-8-methyl-7-oxopyrido[2,3-d]pyrimidin-2-yl]amino]propyl]-N-methylacetamide] | 54.8 nM | 1.83 µM | 33.4 | 9.6 nM | 41.9 nM
CC(=O)N1CCC(CCCNc2ncc3cc(-c4c(F)ccc(NS(=O)(=O)N5CC[C@@H](F)C5)c4F)c(=O)n(C)c3n2)CC1 [Example 28, (3R)-N-[3-[2-[3-(1-acetylpiperidin-4-yl)propylamino]-8-methyl-7-oxopyrido[2,3-d]pyrimidin-6-yl]-2,4-difluorophenyl]-3-fluoropyrrolidine-1-sulfonamide] | 33.4 nM | 1.37 µM | 40.9 | 14.7 nM | 53 nM
CC(=O)NCCOCCNc1ncc2cc(-c3c(F)ccc(NS(=O)(=O)N4CC[C@@H](F)C4)c3F)c(=O)n(C)c2n1 [Example 29, N-[2-[2-[[6-[2,6-difluoro-3-[[(3R)-3-fluoropyrrolidin-1-yl]sulfonylamino]phenyl]-8-methyl-7-oxopyrido[2,3-d]pyrimidin-2-yl]amino]ethoxy]ethyl]acetamide] | 375 nM | ≥ 10 µM | >26.7 | 20.1 nM | 60.1 nM
CCN(C)S(=O)(=O)Nc1ccc(F)c(-c2cc3cnc(NCCCN(C)C(C)=O)nc3n(C)c2=O)c1F [Example 30, N-[3-[[6-[3-[[ethyl(methyl)sulfamoyl]amino]-2,6-difluorophenyl]-8-methyl-7-oxopyrido[2,3-d]pyrimidin-2-yl]amino]propyl]-N-methylacetamide] | 287 nM | 5.7 µM | 19.8 | 72.3 nM | 159 nM
